The target in experiment [1] is T1, human sodium channels Nav 1.7 (Homo sapiens, UniProt Q15858).
T1 construct: expressed in transfected cells
In words: Automated whole-cell voltage-clamp (ScreenPatch 384P) sodium current block, Nav 1.7. In kind it is cell-based. Conditions: CHO cells stably expressing human Nav 1.7; inactivation step -40 mV for 8 seconds, test step 0 mV (TP1A); exposure at least five minutes; room temperature; mean if two or more assays; read-out: Nav1.7 IC50. On the procedure:
(§1) Biological assays were performed on Chinese hamster ovary (CHO) cells that express human sodium channels Nav 1.8 or Nav 1.7 in a stable manner.
(§2) The experimental protocol voltage-clamp using the whole cell configuration was established on the automated ScreenPatch® 384P platform (SP384PE, Nanion Technologies, Livingston, NJ) and the results were recorded with a Nanion 384-well Patch Clamp chip (NPC) (Nanion Technologies, Livingston, NJ).
(§3) Formula I compounds were diluted in eight concentrations in the extracellular solution composed of saline saline solution, buffered with HEPES (mM): NaCl, 137; KCl, 4; CaCl2, 3,8; MgCl2, 1; HEPES, 10; Glucose, 10; pH 7.4. The […], 50; CsF, 90; MgCl2, 5; EGTA, 5; HEPES, 10; pH 7.2. The duration of exposure of each compound with cells expressing Nav 1.7 or Nav 1.8 was at least five minutes and the assays were performed at room temperature.
(§4) The measurements of the sodium currents of Nav 1.8 and Nav 1.7 were obtained using the voltage protocol described below.
(§5) A holding voltage of -100 mV was established followed by an inactivation voltage step at -40 mV for 8 seconds, followed by a step of -100 mV for 20 ms, followed by a 20 ms step for 10 mV for Nav 1.8 or 0 mV for Nav 1.7 (TP1A) before returning to the holding voltage of -100 mV.
(§6) The protocol was repeated at a frequency of 0.05 Hz and the amplitude of the current was quantified throughout the recording of the TP1A phase. The variation in the amplitude of the peak current was evaluated according to the formula described below, after exposing the cells expressing the channels to each concentration of the different compounds: % Block = (1−(ITP1A,molecule/ITP1A,basal)×100%, [formula] wherein ITP1A,basal and ITP1A,molecule represent the peaks of sodium current input into TP1A before exposure to the compound and in the presence of the compound, respectively.
(§7) Data were obtained by nonlinear regression (nonlinear least squares) with XLfit for Excel (Microsoft, Redmond, WA).
(§8) The compounds were tested in at least one assay to obtain the value of CI50. For compounds that were tested in two or more assays, the results are described as the mean of the CI50 values.

The target of experiment [2] is T2, human sodium channels Nav 1.8 (Homo sapiens, UniProt Q9Y5Y9).
T2 construct: expressed in transfected cells
In words: Automated whole-cell voltage-clamp (ScreenPatch 384P) sodium current block, Nav 1.8. In kind it is cell-based. The note with it: CHO cells stably expressing human Nav 1.8; inactivation step -40 mV for 8 seconds, test step 10 mV (TP1A); exposure at least five minutes; room temperature; mean if two or more assays; read-out: Nav1.8 IC50. The procedure:
as §1, §2, §3, §4, §5, §6, §7, §8

The structures appear in SMILES notation.

T1 sequence (Q15858 whole entry): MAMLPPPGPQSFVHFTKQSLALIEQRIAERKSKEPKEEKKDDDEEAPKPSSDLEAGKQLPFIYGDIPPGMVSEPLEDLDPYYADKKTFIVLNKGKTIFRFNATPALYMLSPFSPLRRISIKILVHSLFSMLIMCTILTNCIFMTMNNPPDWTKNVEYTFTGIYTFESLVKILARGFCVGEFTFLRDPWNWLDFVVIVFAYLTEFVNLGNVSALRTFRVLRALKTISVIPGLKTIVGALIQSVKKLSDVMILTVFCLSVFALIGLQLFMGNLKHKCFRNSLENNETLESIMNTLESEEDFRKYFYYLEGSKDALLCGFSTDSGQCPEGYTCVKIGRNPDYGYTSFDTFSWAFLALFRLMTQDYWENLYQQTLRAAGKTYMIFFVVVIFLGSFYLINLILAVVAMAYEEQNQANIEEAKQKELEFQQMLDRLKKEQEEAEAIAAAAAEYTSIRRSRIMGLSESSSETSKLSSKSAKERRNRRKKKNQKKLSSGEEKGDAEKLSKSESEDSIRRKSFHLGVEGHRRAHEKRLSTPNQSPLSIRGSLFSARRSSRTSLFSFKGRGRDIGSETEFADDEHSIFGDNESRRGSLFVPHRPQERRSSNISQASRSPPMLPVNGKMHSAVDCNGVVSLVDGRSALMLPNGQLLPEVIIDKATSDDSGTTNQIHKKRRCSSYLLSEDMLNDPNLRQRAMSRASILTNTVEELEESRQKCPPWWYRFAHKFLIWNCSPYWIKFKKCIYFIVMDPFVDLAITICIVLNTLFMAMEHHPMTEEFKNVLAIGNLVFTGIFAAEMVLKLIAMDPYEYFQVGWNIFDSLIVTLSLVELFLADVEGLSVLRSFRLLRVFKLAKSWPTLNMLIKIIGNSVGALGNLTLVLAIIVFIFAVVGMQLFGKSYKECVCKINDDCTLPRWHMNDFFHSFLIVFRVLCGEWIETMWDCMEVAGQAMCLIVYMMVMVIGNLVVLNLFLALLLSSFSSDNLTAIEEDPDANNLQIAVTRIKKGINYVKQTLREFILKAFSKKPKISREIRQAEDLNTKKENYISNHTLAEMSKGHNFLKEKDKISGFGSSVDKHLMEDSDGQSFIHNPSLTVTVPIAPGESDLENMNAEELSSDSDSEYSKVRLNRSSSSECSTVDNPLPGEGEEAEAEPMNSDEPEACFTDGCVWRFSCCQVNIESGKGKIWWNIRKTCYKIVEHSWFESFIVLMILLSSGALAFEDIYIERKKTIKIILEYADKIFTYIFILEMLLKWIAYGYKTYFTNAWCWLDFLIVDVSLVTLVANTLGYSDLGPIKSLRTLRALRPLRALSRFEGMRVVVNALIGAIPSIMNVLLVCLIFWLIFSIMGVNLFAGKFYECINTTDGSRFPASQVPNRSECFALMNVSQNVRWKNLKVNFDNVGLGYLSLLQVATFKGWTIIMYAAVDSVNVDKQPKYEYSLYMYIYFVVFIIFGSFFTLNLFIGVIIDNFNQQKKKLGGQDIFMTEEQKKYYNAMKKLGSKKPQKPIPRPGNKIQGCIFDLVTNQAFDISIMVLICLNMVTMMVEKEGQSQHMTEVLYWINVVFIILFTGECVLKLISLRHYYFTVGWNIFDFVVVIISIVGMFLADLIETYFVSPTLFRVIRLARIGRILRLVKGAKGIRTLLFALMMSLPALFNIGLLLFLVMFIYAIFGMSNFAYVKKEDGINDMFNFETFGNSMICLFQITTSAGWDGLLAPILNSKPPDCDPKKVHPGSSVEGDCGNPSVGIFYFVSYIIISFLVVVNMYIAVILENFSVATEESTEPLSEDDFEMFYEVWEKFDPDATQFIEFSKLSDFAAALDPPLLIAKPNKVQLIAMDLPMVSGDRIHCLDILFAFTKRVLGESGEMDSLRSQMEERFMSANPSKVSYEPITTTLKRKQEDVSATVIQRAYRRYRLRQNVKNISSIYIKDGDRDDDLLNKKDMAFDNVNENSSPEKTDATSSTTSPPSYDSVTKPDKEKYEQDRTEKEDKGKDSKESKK
T2 sequence (Q9Y5Y9 whole entry): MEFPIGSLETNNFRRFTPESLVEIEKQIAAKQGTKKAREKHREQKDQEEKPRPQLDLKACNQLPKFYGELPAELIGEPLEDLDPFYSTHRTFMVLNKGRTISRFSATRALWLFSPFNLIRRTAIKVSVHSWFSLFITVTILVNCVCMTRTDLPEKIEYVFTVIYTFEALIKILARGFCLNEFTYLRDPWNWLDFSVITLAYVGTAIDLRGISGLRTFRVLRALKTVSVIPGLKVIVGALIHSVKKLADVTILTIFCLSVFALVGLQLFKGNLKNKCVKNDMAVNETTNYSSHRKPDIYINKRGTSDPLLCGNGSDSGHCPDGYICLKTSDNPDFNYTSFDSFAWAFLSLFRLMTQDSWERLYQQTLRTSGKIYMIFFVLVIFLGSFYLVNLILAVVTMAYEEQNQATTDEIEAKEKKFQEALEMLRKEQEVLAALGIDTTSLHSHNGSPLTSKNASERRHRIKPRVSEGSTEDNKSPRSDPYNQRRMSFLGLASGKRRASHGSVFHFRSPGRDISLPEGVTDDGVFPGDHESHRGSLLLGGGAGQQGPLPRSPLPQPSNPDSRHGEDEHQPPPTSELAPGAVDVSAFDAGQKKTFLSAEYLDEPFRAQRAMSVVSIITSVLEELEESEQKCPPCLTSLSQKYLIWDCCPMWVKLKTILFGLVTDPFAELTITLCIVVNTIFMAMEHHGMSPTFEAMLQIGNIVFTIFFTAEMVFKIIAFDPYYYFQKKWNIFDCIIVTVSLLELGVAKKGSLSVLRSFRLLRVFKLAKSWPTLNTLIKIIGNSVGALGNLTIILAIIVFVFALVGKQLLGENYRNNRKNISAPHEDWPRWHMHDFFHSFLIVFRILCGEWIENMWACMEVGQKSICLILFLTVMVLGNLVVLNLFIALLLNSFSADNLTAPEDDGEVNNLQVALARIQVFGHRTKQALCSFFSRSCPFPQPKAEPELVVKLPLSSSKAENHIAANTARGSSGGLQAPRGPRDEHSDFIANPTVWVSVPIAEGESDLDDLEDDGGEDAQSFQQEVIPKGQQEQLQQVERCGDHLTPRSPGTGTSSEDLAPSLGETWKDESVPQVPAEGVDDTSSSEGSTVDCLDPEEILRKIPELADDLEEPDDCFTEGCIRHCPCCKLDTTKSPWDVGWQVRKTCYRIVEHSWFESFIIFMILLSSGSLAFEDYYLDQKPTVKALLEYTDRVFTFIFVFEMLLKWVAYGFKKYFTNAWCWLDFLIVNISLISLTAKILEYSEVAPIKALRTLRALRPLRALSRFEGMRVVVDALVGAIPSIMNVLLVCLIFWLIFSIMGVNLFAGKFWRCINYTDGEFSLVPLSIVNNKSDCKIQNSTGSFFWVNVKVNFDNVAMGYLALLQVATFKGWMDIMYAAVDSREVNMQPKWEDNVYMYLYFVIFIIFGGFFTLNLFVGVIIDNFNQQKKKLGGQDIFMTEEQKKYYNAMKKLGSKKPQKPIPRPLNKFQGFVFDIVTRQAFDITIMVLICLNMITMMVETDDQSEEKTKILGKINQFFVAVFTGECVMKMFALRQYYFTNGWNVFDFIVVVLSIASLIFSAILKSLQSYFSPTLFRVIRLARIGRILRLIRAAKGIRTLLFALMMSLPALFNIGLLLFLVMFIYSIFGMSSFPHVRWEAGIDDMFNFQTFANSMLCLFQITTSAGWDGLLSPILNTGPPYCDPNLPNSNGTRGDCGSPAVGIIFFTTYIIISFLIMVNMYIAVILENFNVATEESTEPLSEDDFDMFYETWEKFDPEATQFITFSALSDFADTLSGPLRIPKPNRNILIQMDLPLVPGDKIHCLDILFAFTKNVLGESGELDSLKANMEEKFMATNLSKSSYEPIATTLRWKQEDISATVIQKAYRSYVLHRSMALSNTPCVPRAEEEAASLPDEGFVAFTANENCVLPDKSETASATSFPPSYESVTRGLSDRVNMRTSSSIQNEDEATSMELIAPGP

As a reminder, the IC50 is the concentration at which inhibition is half-maximal. For `CCOc1ccc(-c2cncc(C(=O)NOCc3cn(C(C)C)cn3)n2)cn1` [Compound 70], the IC50 in experiment [1] is 0.5 to 1 µM; in experiment [2], below 0.5 µM.
Regarding `CCOc1ccc(-c2cncc(C(=O)NOCc3cc(OC)ccc3F)n2)cc1O` [Compound 89], the results for the IC50 in experiment [1] and in experiment [2] were above 1 µM and below 0.5 µM, respectively.
For `[2H]C([2H])([2H])COc1ccc(-c2cncc(C(=O)NOCc3cc(OC([2H])([2H])[2H])ccc3F)n2)cn1` [Compound 52, 6-(6-(ethoxy-2,2,2-d3)pyridine-3-yl)-N-((2-fluoro-5-(methoxy-d3)benzyl)oxy)pyrazine-2-carboxamide] the same measures were above 1 µM and above 1 µM.
The like results for `CCOc1ccc(-c2cncc(C(=O)NOCc3cc(OC)ccc3F)n2)cc1` [Compound 9, 6-(4-ethoxyphenyl)-N-((2-fluoro-5-methoxybenzyl)oxy)pyrazine-2-carboxamide] were, in that order, above 1 µM and below 0.5 µM.
The like results for `COc1ccc(-c2cncc(C(=O)NOCc3cc(OC)ccc3F)n2)cc1` [Compound 2, N-((2-fluoro-5-methoxybenzyl)oxy)-6-(4-methoxyphenyl)pyrazine-2-carboxamide] were, in that order, above 1 µM and below 0.5 µM.
In the case of `CCOc1ccc(-c2cncc(C(=O)NOCc3cc(OC)ncc3F)n2)cn1` [Compound 39, 6-(6-ethoxypyridine-3-yl)-N-((5-fluoro-2-methoxypyridine-4-yl)methoxy)pyrazine-2-carboxamide], the half-inhibitory concentration (IC50) in experiment [1] was above 1 µM; in experiment [2] it was below 0.5 µM.
The like results for `CCOc1ccc(-c2cncc(C(=O)NOCc3cc(OC)cc(OC)c3)n2)cc1` [Compound 20, N-((3,5-dimethoxybenzyl)oxy)-6-(4-ethoxyphenyl)pyrazine-2-carboxamide] were, in that order, above 1 µM and above 1 µM.
As to `CCOc1ccc(-c2cncc(C(=O)NOCc3cccc(OC)c3)n2)cn1` [Compound 33, 6-(6-ethoxypyridine-3-yl)-N-((3-methoxybenzyl)oxy)pyrazine-2-carboxamide], the IC50 in experiment [1] is above 1 µM; in experiment [2], below 0.5 µM.
For `COc1cncc(CONC(=O)c2cncc(-c3ccc(OC(F)F)cc3)n2)c1` [Compound 28, 6-(4-(difluoromethoxy)phenyl)-N-((5-methoxypyridine-3-yl)methoxy)pyrazine-2-carboxamide] the same measures were above 1 µM and below 0.5 µM.
`CCOc1ccc(-c2cncc(C(=O)NOCc3ccccc3F)n2)cc1` [Compound 4, 6-(4-ethoxyphenyl)-N-((2-fluorobenzyl)oxy)pyrazine-2-carboxamide]: the IC50 in experiment [1] was 0.5 to 1 µM; in experiment [2], below 0.5 µM.
For `CCOc1ccc(-c2cncc(C(=O)NOCc3ccccc3O)n2)cc1` [Compound 6, 6-(4-ethoxyphenyl)-N-((2-hydroxybenzyl)oxy)pyrazine-2-carboxamide] the same measures were above 1 µM and above 1 µM.
The like results for `[2H]C([2H])([2H])Oc1ccc(F)c(C([2H])([2H])ONC(=O)c2cncc(-c3ccc(OC([2H])([2H])C([2H])([2H])[2H])nc3)n2)c1` [Compound 54, 6-(6-(ethoxy-d5)pyridine-3-yl)-N-((2-fluoro-5-(methoxy-d3)phenyl)methoxy-d2)pyrazine-2-carboxamide] were, in that order, above 1 µM and above 1 µM.
For `O=C(NOCc1ccccc1F)c1cncc(-c2ccc(OC(F)(F)F)nc2)n1` [Compound 71] the same measures were below 0.5 µM and below 0.5 µM.
`CCOc1ccc(-c2cncc(C(=O)NOCc3cc(N(C)C)cnc3F)n2)cn1` [Compound 41, N-((5-(dimethylamino)-2-fluoropyridine-3-yl)methoxy)-6-(6-ethoxypyridine-3-yl)pyrazine-2-carboxamide]: the IC50 was above 1 µM in experiment [1] and below 0.5 µM in experiment [2].
Take `CCOc1ccc(-c2nc(C(=O)NOCc3cc(OC)ccc3F)cnc2N)cn1` [Compound 102]: the IC50 in experiment [1] is above 1 µM; in experiment [2] it was below 0.5 µM.
For `CCOc1ccc(-c2cc(O)nc(C(=O)NOCc3cc(OC)ccc3F)n2)cc1` [Compound 113] the same measures were above 1 µM and below 0.5 µM.
For `COc1ccc(F)c(CONC(=O)c2cnc(N)c(-c3ccc(OC(F)F)nc3)n2)c1` [Compound 122] the same measures were above 1 µM and above 1 µM.
The like results for `CCOc1ccc(-c2cccc(C(=O)NOCc3cc(OC)ccc3F)n2)cn1` [Compound 106] were, in that order, above 1 µM and above 1 µM.
As for `[2H]C([2H])([2H])COc1ccc(-c2cncc(C(=O)NOCc3cc(OC)ccc3F)n2)cn1` [Compound 49, 6-(6-(ethoxy-2,2,2-d3)pyridine-3-yl)-N-((2-fluoro-5-methoxybenzyl)oxy)pyrazine-2-carboxamide], the IC50 in experiment [1] and in experiment [2] was above 1 µM in each case.
`COc1ccc(F)c(CONC(=O)c2cncc(-c3ccc(OCCC4CNC4)cc3)n2)c1` [Compound 24, 6-(4-(2-(azetidine-3-yl)ethoxy)phenyl)-N-((2-fluoro-5-methoxybenzyl)oxy)pyrazine-2-carboxamide]: the IC50 in experiment [1] and in experiment [2] was above 1 µM in each case.
`CCOc1ccc(-c2cncc(C(=O)NOCc3cc(OC)ccc3F)n2)c(OC)n1` [Compound 94]: the IC50 in experiment [1] and in experiment [2] was above 1 µM in each case.
As to `CCOc1ccc(-c2cncc(C(=O)NOCc3cc(OC)ccc3O)n2)cc1` [Compound 16, 6-(4-ethoxyphenyl)-N-((2-hydroxy-5-methoxybenzyl)oxy)pyrazine-2-carboxamide], the IC50 in experiment [1] and in experiment [2] was above 1 µM in each case.
Consider `COc1ccc(F)c(CONC(=O)c2cncc(-c3ccc(OC(F)F)cc3OC)n2)c1` [Compound 88], for which the IC50 in experiment [1] and in experiment [2] was above 1 µM each time.
On to `CCOc1ccc(-c2cncc(C(=O)NOCc3cccc(OC)c3)n2)cc1` [Compound 5, 6-(4-ethoxyphenyl)-N-((3-methoxybenzyl)oxy)pyrazine-2-carboxamide], for which the IC50 in experiment [1] is above 1 µM; in experiment [2], below 0.5 µM.
For `CCOc1ccc(-c2cncc(C(=O)NOCc3cc(OC(C)C)ccc3F)n2)cc1` [Compound 10, 6-(4-ethoxyphenyl)-N-((2-fluoro-5-isopropoxybenzyl)oxy)pyrazine-2-carboxamide] the same measures were above 1 µM and below 0.5 µM.
The like results for `O=C(NOCc1ccccn1)c1cncc(-c2ccc(OC(F)(F)F)nc2)n1` [Compound 73] were, in that order, above 1 µM and below 0.5 µM.
For `CCOc1ccc(-c2cncc(C(=O)NOCc3cc(N(C)C)ccc3F)n2)cn1` [Compound 40, N-((5-(dimethylamino)-2-fluorobenzyl)oxy)-6-(6-ethoxypyridine-3-yl)pyrazine-2-carboxamide] the same measures were above 1 µM and below 0.5 µM.
With `COc1ccc(F)c(CONC(=O)c2cncc(-c3ccc(O)cc3)n2)c1` [Compound 1, N-((2-fluoro-5-methoxybenzyl)oxy)-6-(4-hydroxyphenyl)pyrazine-2-carboxamide], the IC50 in experiment [1] and in experiment [2] was above 1 µM in each case.
In the case of `COc1ccc(F)c(CONC(=O)c2cncc(-c3ccc(OC(F)F)nc3)n2)c1` [Compound 77], the IC50 in experiment [1] and in experiment [2] was above 1 µM each time.
Turning to `CCOc1ccc(-c2cncc(C(=O)NOCc3cc(OC)ccc3Cl)n2)cc1` [Compound 11, N-((2-chloro-5-methoxybenzyl)oxy)-6-(4-ethoxyphenyl)pyrazine-2-carboxamide], the IC50 is 0.5 to 1 µM in experiment [1] and below 0.5 µM in experiment [2].
For the compound `[2H]C([2H])([2H])Oc1ccc(F)c(CONC(=O)c2cncc(-c3ccc(OC(F)F)nc3)n2)c1` [Compound 83], the IC50 in experiment [1] and in experiment [2] was above 1 µM throughout.
Consider `CCOc1ccc(-c2cncc(C(=O)NOCc3cc(OC)ccc3F)n2)c(OC)c1` [Compound 87], for which the IC50 in experiment [1] was above 1 µM; in experiment [2], below 0.5 µM.
For `COc1ccc(F)c(CONC(=O)c2nccc(-c3ccc(OC(F)F)nc3)n2)c1` [Compound 119] the same measures were above 1 µM and below 0.5 µM.

Source of the values: EP4660184A1 (Eurofarma Laboratórios S.A., priority 2023, dated 2024).
